Results published in the NIST ThermoML archive (doi:10.1021/je900387e).

Assay: xn = mol fraction of the nth substance listed
Conditions: Liquid, Pycnometric method

CCCCBr [1-bromobutane] + O=C=O
Conditions	mass density [kg/m3]
316.1 K, 8510 kPa, x1 = 0.0245	593
316.1 K, 8560 kPa, x1 = 0.0245	604
316.1 K, 8620 kPa, x1 = 0.0245	615
316.1 K, 8690 kPa, x1 = 0.0245	627
316.1 K, 8780 kPa, x1 = 0.0245	639
316.1 K, 8880 kPa, x1 = 0.0245	652
316.1 K, 9000 kPa, x1 = 0.0245	665
316.1 K, 9150 kPa, x1 = 0.0245	683
316.1 K, 9340 kPa, x1 = 0.0245	694
316.1 K, 9560 kPa, x1 = 0.0245	709
316.1 K, 9850 kPa, x1 = 0.0245	725
316.1 K, 10200 kPa, x1 = 0.0245	741
316.1 K, 10240 kPa, x1 = 0.0245	743
316.1 K, 10290 kPa, x1 = 0.0245	746
316.1 K, 10350 kPa, x1 = 0.0245	750
317.9 K, 7540 kPa, x1 = 0.1495	964
317.9 K, 7770 kPa, x1 = 0.1495	967
317.9 K, 7950 kPa, x1 = 0.0989	850
317.9 K, 7990 kPa, x1 = 0.1495	970
317.9 K, 8090 kPa, x1 = 0.0989	853
317.9 K, 8230 kPa, x1 = 0.0683	777
317.9 K, 8230 kPa, x1 = 0.1495	974
317.9 K, 8330 kPa, x1 = 0.0461	703
317.9 K, 8340 kPa, x1 = 0.0683	780
317.9 K, 8370 kPa, x1 = 0.0461	705
317.9 K, 8370 kPa, x1 = 0.0989	859
317.9 K, 8450 kPa, x1 = 0.0245	491
317.9 K, 8450 kPa, x1 = 0.0461	712
317.9 K, 8450 kPa, x1 = 0.1495	977
317.9 K, 8460 kPa, x1 = 0.0245	493
317.9 K, 8480 kPa, x1 = 0.0245	499
317.9 K, 8490 kPa, x1 = 0.0683	786
317.9 K, 8500 kPa, x1 = 0.0245	506
317.9 K, 8530 kPa, x1 = 0.0245	512
317.9 K, 8550 kPa, x1 = 0.0245	518
317.9 K, 8550 kPa, x1 = 0.0461	721
317.9 K, 8570 kPa, x1 = 0.0245	525
317.9 K, 8600 kPa, x1 = 0.0245	532
317.9 K, 8620 kPa, x1 = 0.0245	540
317.9 K, 8630 kPa, x1 = 0.0683	791
317.9 K, 8650 kPa, x1 = 0.0245	547
317.9 K, 8650 kPa, x1 = 0.0989	865
317.9 K, 8660 kPa, x1 = 0.1495	980
317.9 K, 8680 kPa, x1 = 0.0461	731
317.9 K, 8690 kPa, x1 = 0.0245	555
317.9 K, 8720 kPa, x1 = 0.0245	563
317.9 K, 8770 kPa, x1 = 0.0245	571
317.9 K, 8790 kPa, x1 = 0.0683	797
317.9 K, 8800 kPa, x1 = 0.0245	579
317.9 K, 8820 kPa, x1 = 0.0245	583
317.9 K, 8840 kPa, x1 = 0.0245	588
317.9 K, 8840 kPa, x1 = 0.0461	741
317.9 K, 8870 kPa, x1 = 0.0245	589
317.9 K, 8890 kPa, x1 = 0.0245	597
317.9 K, 8920 kPa, x1 = 0.0245	601
317.9 K, 8940 kPa, x1 = 0.0683	802
317.9 K, 8950 kPa, x1 = 0.0989	871
317.9 K, 8960 kPa, x1 = 0.0245	608
317.9 K, 8960 kPa, x1 = 0.0461	748
317.9 K, 8990 kPa, x1 = 0.1495	984
317.9 K, 9100 kPa, x1 = 0.0461	756
317.9 K, 9130 kPa, x1 = 0.0683	808
317.9 K, 9250 kPa, x1 = 0.1495	987
317.9 K, 9270 kPa, x1 = 0.0461	764
317.9 K, 9300 kPa, x1 = 0.0989	877
317.9 K, 9330 kPa, x1 = 0.0683	814
317.9 K, 9530 kPa, x1 = 0.0461	774
317.9 K, 9540 kPa, x1 = 0.0683	820
317.9 K, 9580 kPa, x1 = 0.1495	990
317.9 K, 9670 kPa, x1 = 0.0989	884
317.9 K, 9770 kPa, x1 = 0.0683	826
317.9 K, 9810 kPa, x1 = 0.0461	785
317.9 K, 9860 kPa, x1 = 0.1495	993
317.9 K, 10030 kPa, x1 = 0.0683	832
317.9 K, 10050 kPa, x1 = 0.0989	890
317.9 K, 10160 kPa, x1 = 0.0461	796
317.9 K, 10240 kPa, x1 = 0.1495	997
317.9 K, 10310 kPa, x1 = 0.0683	838
317.9 K, 10500 kPa, x1 = 0.0989	897
317.9 K, 10560 kPa, x1 = 0.1495	1000
317.9 K, 10590 kPa, x1 = 0.0461	809
317.9 K, 10630 kPa, x1 = 0.0683	845
317.9 K, 10930 kPa, x1 = 0.1495	1004
317.9 K, 10940 kPa, x1 = 0.0683	850
317.9 K, 10950 kPa, x1 = 0.0989	903
317.9 K, 11060 kPa, x1 = 0.0461	821
317.9 K, 11270 kPa, x1 = 0.1495	1007
317.9 K, 11310 kPa, x1 = 0.0683	858
317.9 K, 11470 kPa, x1 = 0.0989	910
317.9 K, 11600 kPa, x1 = 0.0461	833
317.9 K, 11690 kPa, x1 = 0.0683	863
317.9 K, 11700 kPa, x1 = 0.1495	1011
317.9 K, 11870 kPa, x1 = 0.0683	867
317.9 K, 11890 kPa, x1 = 0.0461	839
317.9 K, 12010 kPa, x1 = 0.0989	916
317.9 K, 12060 kPa, x1 = 0.1495	1014
317.9 K, 12520 kPa, x1 = 0.1495	1018
317.9 K, 12610 kPa, x1 = 0.0989	923
317.9 K, 12970 kPa, x1 = 0.1495	1022
317.9 K, 13250 kPa, x1 = 0.0989	930
317.9 K, 13430 kPa, x1 = 0.1495	1026
317.9 K, 13860 kPa, x1 = 0.1495	1029
317.9 K, 13890 kPa, x1 = 0.0989	937
317.9 K, 14380 kPa, x1 = 0.1495	1033
317.9 K, 14630 kPa, x1 = 0.0989	944
317.9 K, 14800 kPa, x1 = 0.1495	1036
317.9 K, 14980 kPa, x1 = 0.0989	947
317.9 K, 15020 kPa, x1 = 0.1495	1038
322.7 K, 8260 kPa, x1 = 0.1495	946
322.7 K, 8470 kPa, x1 = 0.1495	948
322.7 K, 8500 kPa, x1 = 0.0989	818
322.7 K, 8710 kPa, x1 = 0.1495	952
322.7 K, 8720 kPa, x1 = 0.0989	825
322.7 K, 8810 kPa, x1 = 0.0683	731
322.7 K, 8820 kPa, x1 = 0.0245	422
322.7 K, 8840 kPa, x1 = 0.0245	425
322.7 K, 8860 kPa, x1 = 0.0461	629
322.7 K, 8880 kPa, x1 = 0.0245	432
322.7 K, 8880 kPa, x1 = 0.0683	735
322.7 K, 8900 kPa, x1 = 0.0461	632
322.7 K, 8920 kPa, x1 = 0.0245	439
322.7 K, 8920 kPa, x1 = 0.0989	830
322.7 K, 8920 kPa, x1 = 0.1495	954
322.7 K, 8940 kPa, x1 = 0.0461	639
322.7 K, 8960 kPa, x1 = 0.0245	447
322.7 K, 8970 kPa, x1 = 0.0683	740
322.7 K, 8990 kPa, x1 = 0.0461	647
322.7 K, 9000 kPa, x1 = 0.0245	455
322.7 K, 9060 kPa, x1 = 0.0461	655
322.7 K, 9070 kPa, x1 = 0.0245	465
322.7 K, 9070 kPa, x1 = 0.0683	745
322.7 K, 9110 kPa, x1 = 0.0245	473
322.7 K, 9120 kPa, x1 = 0.0461	662
322.7 K, 9160 kPa, x1 = 0.0245	482
322.7 K, 9160 kPa, x1 = 0.0683	750
322.7 K, 9160 kPa, x1 = 0.0989	836
322.7 K, 9160 kPa, x1 = 0.1495	958
322.7 K, 9190 kPa, x1 = 0.0461	671
322.7 K, 9210 kPa, x1 = 0.0245	491
322.7 K, 9250 kPa, x1 = 0.0683	755
322.7 K, 9260 kPa, x1 = 0.0245	500
322.7 K, 9270 kPa, x1 = 0.0461	679
322.7 K, 9320 kPa, x1 = 0.0245	510
322.7 K, 9360 kPa, x1 = 0.0683	759
322.7 K, 9370 kPa, x1 = 0.0245	520
322.7 K, 9380 kPa, x1 = 0.0461	687
322.7 K, 9380 kPa, x1 = 0.1495	961
322.7 K, 9400 kPa, x1 = 0.0989	841
322.7 K, 9430 kPa, x1 = 0.0245	531
322.7 K, 9480 kPa, x1 = 0.0461	696
322.7 K, 9480 kPa, x1 = 0.0683	765
322.7 K, 9500 kPa, x1 = 0.0245	542
322.7 K, 9570 kPa, x1 = 0.0245	553
322.7 K, 9600 kPa, x1 = 0.0683	770
322.7 K, 9610 kPa, x1 = 0.0461	705
322.7 K, 9650 kPa, x1 = 0.0989	847
322.7 K, 9660 kPa, x1 = 0.0245	565
322.7 K, 9670 kPa, x1 = 0.1495	964
322.7 K, 9730 kPa, x1 = 0.0683	775
322.7 K, 9750 kPa, x1 = 0.0245	576
322.7 K, 9810 kPa, x1 = 0.0461	718
322.7 K, 9850 kPa, x1 = 0.0245	590
322.7 K, 9870 kPa, x1 = 0.0683	780
322.7 K, 9910 kPa, x1 = 0.1495	968
322.7 K, 9930 kPa, x1 = 0.0245	599
322.7 K, 9930 kPa, x1 = 0.0989	853
322.7 K, 9990 kPa, x1 = 0.0245	606
322.7 K, 10000 kPa, x1 = 0.0245	608
322.7 K, 10050 kPa, x1 = 0.0683	786
322.7 K, 10090 kPa, x1 = 0.0461	733
322.7 K, 10160 kPa, x1 = 0.1495	971
322.7 K, 10230 kPa, x1 = 0.0683	791
322.7 K, 10240 kPa, x1 = 0.0989	859
322.7 K, 10420 kPa, x1 = 0.0461	748
322.7 K, 10420 kPa, x1 = 0.0683	797
322.7 K, 10440 kPa, x1 = 0.1495	974
322.7 K, 10550 kPa, x1 = 0.0989	870
322.7 K, 10620 kPa, x1 = 0.0683	802
322.7 K, 10760 kPa, x1 = 0.1495	977
322.7 K, 10820 kPa, x1 = 0.0461	764
322.7 K, 10840 kPa, x1 = 0.0683	808
322.7 K, 10910 kPa, x1 = 0.0989	872
322.7 K, 10980 kPa, x1 = 0.1495	980
322.7 K, 11080 kPa, x1 = 0.0683	814
322.7 K, 11270 kPa, x1 = 0.0989	877
322.7 K, 11290 kPa, x1 = 0.0461	779
322.7 K, 11340 kPa, x1 = 0.0683	820
322.7 K, 11370 kPa, x1 = 0.1495	984
